Laboratory results reported in ChEMBL document CHEMBL1127159, “Preparation and biological evaluation of -fluoromethyl--methylene--butyrolactone and -butyrolactam” (Bioorg Med Chem Lett, 1993).
In brackets after ≈: the same amount, converted by molar mass.

Tests used:
Type in all cases: functional, cell-based
SK-MEL-28 = assay: The compound was evaluated for antitumoral activity against human melanoma cell line P36 after 72 hr of incubation; conditions: SK-MEL-28, 72 h
L1210/C = assay: The compound was evaluated for antitumoral activity against mouse leukemia cell line L1210/c after 72 hr of incubation; conditions: L1210, 72 h
CCRF-CEM = assay: The compound was evaluated for antitumoral activity against human leukemia cell line CCRF CEM after 72 hr of incubation
SW480 = assay: The compound was evaluated for antitumoral activity against human cancer cell line SW480 after 72 hr of incubation; conditions: SW480, 72 h
T-24 = assay: The compound was evaluated for antitumoral activity against human cancer cell line T24 after 72 hr of incubation; conditions: T-24, 72 h

Structure (SMILES) | IC50 (SK-MEL-28) [µg/mL] | IC50 (L1210/C) [µg/mL] | IC50 (CCRF-CEM) [µg/mL] | IC50 (SW480) [µg/mL] | IC50 (T-24) [µg/mL]
C=C1CC(C(F)F)OC1=O (stereo not given) | 2 (≈ 13.5 µM) | 3 (≈ 20.3 µM) | 4 (≈ 27 µM) | 4 (≈ 27 µM) | 0.5 (≈ 3.38 µM)
O=c1[nH]cc(F)c(=O)[nH]1 [FLUOROURACIL] | 11 (≈ 84.6 µM) | 0.2 (≈ 1.54 µM) | 4 (≈ 30.8 µM) | 6 (≈ 46.1 µM) | 6 (≈ 46.1 µM)
